Test results reported in US11059845B2, “Immune stimulating macrolides” (ISR IMMUNE SYSTEM REGULATION HOLDING AB (PUBL), priority 2017, dated 2021).
Converted amounts (≈) assume the structure as drawn.

Tests used:
Format in all cases: cell-based
[1] = tested on: Streptococcus salivarius subsp. salivarius; assay: Minimum Inhibitory Concentration (MIC) assay; conditions: anaerobic, 37° C., 18 h
Description: (§1) The bioactivity of macrolide compounds against 4 strains of common gut bacteria (Escherichia coli, Streptococcus salivarius subsp. salivarius, Lactobacillus casei and Bifidobacterium longum subsp. infantis) and common mammalian skin isolate Micrococcus luteus, was assessed using the Minimum Inhibitory Concentration (MIC) assay. Bacterial strains were purchased from DSMZ (Brunswick, Germany) except M. luteus which was obtained from NCIMB, and stored in 20% glycerol at −80° C. Stock solutions (100% DMSO) of positive controls (azithromycin and erythromycin), and of test compounds 1 and 2 were diluted in broth to working stock concentrations of 256 μg/ml (final assay testing concentration range 128 μg/ml to 0.00391 μg/ml). Stock solutions of all other compounds were diluted in broth to working stock concentrations of 128 μg/ml (final assay testing concentration range 64 μg/ml to 0.00195 μg/ml). Bacterial strains were cultivated in appropriate broth in an anaerobic chamber at 37° C., except for M. luteus which was incubated aerobically at 37° C. 18 h cultures were diluted in broth to an OD595 of 0.1 and then further diluted 1:10. In 96-well plates, in duplicate, 200 μl working stock of test compound was transferred to well 1 and serially diluted (1:2) in broth. 100 μl bacterial suspension was aliquoted into each well and mixed thoroughly. Appropriate sterility controls were included and plates were incubated in an anaerobic chamber, or aerobically (M. luteus) at 37° C. for 18 h. The MIC was determined to be the concentration of test compound in the first well with no visible growth.

[2] = tested on: Bifidobacterium longum subsp. infantis; assay: Minimum Inhibitory Concentration (MIC) assay; conditions: anaerobic, 37° C., 18 h
Description: as §1

[3] = tested on: Lactobacillus casei; assay: Minimum Inhibitory Concentration (MIC) assay; conditions: Lacticaseibacillus casei; anaerobic, 37° C., 18 h
Description: as §1

[4] = tested on: Escherichia coli; assay: Minimum Inhibitory Concentration (MIC) assay; conditions: anaerobic, 37° C., 18 h
Description: as §1

[5] = tested on: E. coli, S. salivarius, L. casei, B. longum or M. luteus; assay: Direct antibacterial activity, summary over all strains tested; conditions: against the bacterial strains tested (Table 1)
Description: as §1

[6] = molecular target: T1, human TLR2 (Homo sapiens, UniProt O60603); assay: TLR2 reporter assay (HEK-293-TLR, SEAP); conditions: for OD after addition of 5 μM test article / OD after addition of 10 μM test article / OD after addition of 20 μM test article: SEAP reporter optical density; for TLR2 stimulation: at concentrations up to 20 uM
T1 construct: host or cells: recombinant HEK-293-TLR cell lines (hTLR2, NFkB-SEAP reporter)
T1 sequence (O60603 21-784): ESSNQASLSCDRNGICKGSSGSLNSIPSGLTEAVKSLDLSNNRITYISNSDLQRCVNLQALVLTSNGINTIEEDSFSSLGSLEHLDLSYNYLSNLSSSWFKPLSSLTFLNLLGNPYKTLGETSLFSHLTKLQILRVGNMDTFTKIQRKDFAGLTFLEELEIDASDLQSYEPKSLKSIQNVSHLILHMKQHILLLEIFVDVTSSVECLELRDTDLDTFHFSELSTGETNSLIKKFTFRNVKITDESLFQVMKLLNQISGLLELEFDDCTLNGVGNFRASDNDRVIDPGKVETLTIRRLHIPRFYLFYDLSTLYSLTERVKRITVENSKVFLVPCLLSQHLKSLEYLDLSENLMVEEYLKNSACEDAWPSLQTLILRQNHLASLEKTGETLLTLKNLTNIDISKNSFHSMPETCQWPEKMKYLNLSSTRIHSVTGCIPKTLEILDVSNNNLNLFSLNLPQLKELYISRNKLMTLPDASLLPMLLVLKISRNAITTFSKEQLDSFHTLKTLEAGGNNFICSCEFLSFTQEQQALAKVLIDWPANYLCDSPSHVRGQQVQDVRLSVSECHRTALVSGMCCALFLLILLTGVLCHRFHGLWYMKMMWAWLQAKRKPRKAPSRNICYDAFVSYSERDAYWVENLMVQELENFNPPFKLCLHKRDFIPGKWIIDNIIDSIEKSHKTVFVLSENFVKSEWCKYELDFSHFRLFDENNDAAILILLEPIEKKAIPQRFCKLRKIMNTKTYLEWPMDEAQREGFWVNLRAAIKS
Description: Samples and controls were tested in duplicate on recombinant HEK-293-TLR cell lines using a cell reporter assay at Invivogen using their standard assay conditions. These cell lines functionally over-express human TLR2 protein as well as a reporter gene which is a secreted alkaline phosphatase (SEAP). The production of this reporter gene is driven by an NFkB inducible promoter. The TLR reporter cell lines activation results are given as optical density values (OD). 20 μl of each test article were used to stimulate the hTLR2 reporter cell lines in a 200 μl of final reaction volume. Samples were tested in duplicate, with at least two concentrations tested—20 uM and 10 uM.
Compounds were tested using a TLR2 reporter assay (see general methods) that measured for stimulation of the TLR2 receptor. Stimulatory effect was measured as an increase in optical density (OD) due to release of secreted alkaline phosphatase (SEAP) and is shown in table 4: […]

[7] = tested on: Micrococcus luteus; assay: Minimum Inhibitory Concentration (MIC) assay; conditions: aerobic, 37° C., 18 h
Description: as §1

Structure (SMILES)	MIC [1] [µg/mL]	MIC [2] [µg/mL]	MIC [3] [µg/mL]	MIC [4] [µg/mL]	antibacterial activity [5]	OD after addition of 5 μM test article [6]	OD after addition of 10 μM test article [6]	OD after addition of 20 μM test article [6]	TLR2 stimulation [6]	concentrations at which TLR2 was stimulated (down to) ([6]; lowest stimulating concentration tested) [µM]	MIC [7] [µg/mL]
CC[C@H]1OC(=O)[C@H](C)[C@@H](O[C@H]2CC(N(C)C)[C@H](O)C(C)O2)[C@H](C)[C@@H](O)[C@](C)(O)C[C@@H](C)CN(C)[C@H](C)[C@@H](O)[C@H]1C (some centres unmarked) [Compound 4]	> 64	> 64	> 64	> 64	no antibacterial activity						
CC1O[C@@H](O[C@H]2[C@H](C)[C@@H](O)[C@](C)(O)C[C@@H](C)C(=O)[C@H](C)[C@@H](O)[C@@H](C)[C@@H](C3CCC3)OC(=O)[C@@H]2C)CC(N(C)C)[C@@H]1O (some centres unmarked) [Compound 5]	> 64	> 64	> 64	> 64	no antibacterial activity						
CC(O)[C@H]1OC(=O)[C@H](C)[C@@H](O[C@H]2C[C@@H](N(C)C)[C@H](O)[C@@H](C)O2)[C@H](C)[C@@H](O)[C@](C)(O)C[C@@H](C)C(=O)[C@H](C)[C@@H](O)[C@H]1C (some centres unmarked) [Compound 9, 14-hydroxy angolosamine erythronolide B]	> 64	> 64	> 64	> 64	no antibacterial activity						
CC[C@H]1OC(=O)[C@H](C)[C@@H](O[C@H]2CC(N(C)C)[C@H](O)C(C)O2)[C@H](C)[C@@H](O)[C@](C)(O)C[C@@H](C)C(=O)[C@H](C)[C@@H](O)[C@H]1C (some centres unmarked) [Compound 3]					no antibacterial activity	−0.043	−0.015	−0.026	little or no stimulation		
CC[C@H]1OC(=O)[C@H](C)[C@@H](O[C@H]2CC(N(C)C)[C@H](O)C(C)O2)[C@H](C)[C@@H](O)[C@](C)(O)C[C@@H](C)N(C)C[C@H](C)[C@@H](O)[C@]1(C)O (some centres unmarked) [Compound 17]						0.054	0.155	0.234		≥ 10	
CC[C@H]1OC(=O)[C@H](C)[C@@H](O[C@H]2CC(N(C)C)[C@H](O)C(C)O2)[C@H](C)[C@@H](O)[C@](C)(O)C[C@@H](C)C(O)[C@H](C)[C@@H](O)[C@H]1C (some centres unmarked) [Compound 7]	> 64	> 64	> 64	> 64	no antibacterial activity						
CC[C@H]1OC(=O)[C@H](C)[C@@H](O[C@H]2C[C@@](C)(OC)[C@@H](O)[C@H](C)O2)[C@H](C)[C@@H](O[C@@H]2O[C@H](C)C[C@H](N(C)C)[C@H]2O)[C@](C)(O)C[C@@H](C)C(=O)[C@H](C)[C@@H](O)[C@]1(C)O [Erythromycin, reference compound]	< 0.06	> 64	< 0.25	> 64	potent activity against a number of the strains	0.035	0.065	0.045	little or no stimulation		< 0.0625
CC[C@H]1OC(=O)[C@H](C)[C@@H](O[C@H]2C[C@@](C)(OC)[C@@H](O)[C@H](C)O2)[C@H](C)[C@@H](O[C@@H]2O[C@H](C)C[C@H](N(C)C)[C@H]2O)[C@](C)(O)C[C@@H](C)CN(C)[C@H](C)[C@@H](O)[C@]1(C)O [Azithromycin, reference compound]	< 0.5	> 64	< 1	< 8	potent activity against a number of the strains	0.029	0.045	0.031	little or no stimulation		0.125 (≈ 0.167 µM)
CC[C@H]1OC(=O)[C@H](C)[C@@H](O[C@H]2CC(NC)[C@H](O)C(C)O2)[C@H](C)[C@@H](O)[C@](C)(O)C[C@@H](C)C(=O)[C@H](C)[C@@H](O)[C@H]1C (some centres unmarked) [Compound 6]	> 64	> 64	> 64	> 64	no antibacterial activity						
CC1O[C@@H](O[C@H]2[C@H](C)[C@@H](O)[C@](C)(O)C[C@@H](C)C(=O)[C@H](C)[C@@H](O)[C@@H](C)[C@@H](C)OC(=O)[C@@H]2C)CC(N(C)C)[C@@H]1O (some centres unmarked) [Compound 8]	> 64	> 64	> 64	> 64	no antibacterial activity						
